Converted amounts (≈) assume the structure as drawn.
Columns and labels:
Penicillium digitatum = experiment: Antifungal activity against Penicillium digitatum after 48 hr; assay type: functional, organism-based
[1] = target: T1, Cytochrome P450 14alpha-demethylase (Penicillium digitatum, UniProt A1XG20); experiment: Binding affinity to Penicillium digitatum recombinant N-terminal-His6 tagged CYP51 expressed in Escherichia coli BL21(DE3) by spectrophotometric analysis
T1 sequence (A1XG20 whole entry): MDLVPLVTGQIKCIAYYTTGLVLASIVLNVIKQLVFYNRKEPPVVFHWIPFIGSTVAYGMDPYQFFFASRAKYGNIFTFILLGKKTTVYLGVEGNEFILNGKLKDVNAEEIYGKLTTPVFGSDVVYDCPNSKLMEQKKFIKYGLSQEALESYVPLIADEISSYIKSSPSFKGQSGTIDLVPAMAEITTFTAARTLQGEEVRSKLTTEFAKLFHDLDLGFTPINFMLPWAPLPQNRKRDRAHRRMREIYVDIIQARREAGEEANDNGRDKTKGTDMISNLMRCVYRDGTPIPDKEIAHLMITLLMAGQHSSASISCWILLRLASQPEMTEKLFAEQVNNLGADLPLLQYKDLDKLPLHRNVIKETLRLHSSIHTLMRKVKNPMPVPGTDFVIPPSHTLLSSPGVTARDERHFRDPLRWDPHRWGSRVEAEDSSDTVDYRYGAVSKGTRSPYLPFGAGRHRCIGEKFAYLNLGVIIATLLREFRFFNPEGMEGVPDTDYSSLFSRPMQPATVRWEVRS

Row | SMILES | EC50 (Penicillium digitatum) [µg/mL] | Kd [1] [nM]
1 | COc1ccc2c(c1)SCC(N)=N2 [7-METHOXY-2H-BENZO[B][1,4]THIAZINE-3-AMINE] | 1.18 (≈ 6.07 µM) | 268
2 | CC(C)(C)C(=O)C(Oc1ccc(Cl)cc1)n1cncn1 (stereo not given) [TRIADIMEFON] | – | 420
3 | CC(C)(C)C(O)/C(=C\c1ccc(Cl)cc1Cl)n1cncn1 (stereo not given) [DINICONAZOLE] | – | 120
4 | NNc1ncncc1-c1ccccc1 [5-PHENYLPYRIMIDIN-4-YLHYDRAZINE] | 10.1 (≈ 54.2 µM) | 658
5 | Nc1nnc(CSCc2ccc(Cl)cc2)s1 | 7.88 (≈ 29 µM) | 642
6 | c1cc2c3c(cccc3c1)NC(c1cnc[nH]1)N2 | 38.6 (≈ 163 µM) | 990

Reference: ChEMBL document CHEMBL3046373, “Optimised expression and spectral analysis of the target enzyme CYP51 from Penicillium digitatum with possible new DMI fungicides” (Pest Manag Sci, 2010)
